Laboratory results as given in US11760979B2, “Isolated liver cancer stem cell and method for drug screening thereof” (LICENSE BIOTECHNOLOGY Co., Ltd., priority 2020, dated 2023).
“Also recorded” adds a separate entry of the source.

Experiments:
TW-1 cell line [1] = assay: In vitro drug screening test (cell survival rate); type: cell-based, rat
Procedure: (§1) The purpose of the method of drug screening is to evaluate the inhibitory ability of the active ingredients of currently used anticancer drugs against the growth, recurrence, or metastasis of TW-1 cell line, and HTC cell line was used as control group. The active ingredient of anticancer drug be used in the embodiment was Sorafenib.
TW-1 cell line and HTC cell line were seeded in 96-well plate with 2×10^5 cells/well, 1 μM, 5 μM, 10 μM, 20 μM and 40 μM of Sorafenib were respectfully used for treating cells once the cells were attached, and the negative control group cells were treated with PBS.

TW-1 cell line [2] = assay: In vivo drug screening test, TW-1 cell line transplanted subcutaneously; design: species or system BALB/cAnN.Cg-Foxnl^nu/CrlNarl nude mice; conditions: nude mice
Procedure: as §1, with “BALB/cAnN.Cg-Foxnl^nu/CrlNarl nude mice were” for “HTC cell line was”, “the animal model.” for “control group.”
BALB/cAnN.Cg-Foxnl^nu/CrlNarl nude mice were grouped into 3 groups, control group (Control), low-dose Sorafenib group (10 mg/kg body weight (BD)) and high-dose Sorafenib group (50 mg/kg body weight (BD)), 5 mice in each group.
Transplanting of TW-1 cell line into BALB/cAnN.Cg-Foxnl^nu/CrlNarl nude mice were processed with 5×10^5 cells by subcutaneous injection for evaluating the effect of anticancer drugs against TW-1 cell line.
After the tumor grew to appropriate size (100-150 mm^3) that was able to be measured at the TW-1 cell line transplanted position, the mice were treated with Sorafenib (Sorafenib groups) or PBS (control group) once per three days, and tumor generation of the mice were measured for 30 days the tumor volume of mice were recorded once per five days.

CNC(=O)c1cc(Oc2ccc(NC(=O)Nc3ccc(Cl)c(C(F)(F)F)c3)cc2)ccn1 [Sorafenib]
cell growth (TW-1 cell line [1]; 40 μM Sorafenib, 24 and 48 hours post-treatment): the cell growth was decreased; also recorded: had the ability to inhibit growth of TW-1 cell line, but TW-1 cell line was not killed | sensitivity to Sorafenib (cell survival rate), TW-1 cell line compared with HTC cell line (TW-1 cell line [1]; concentration lower than 10 μM, after treatment for 24 hours, HTC cell line as control): higher sensitivity | drug tolerance of TW-1 cell line compared with HTC cell lines (TW-1 cell line [1]; high concentration (up to 40 μM), more obvious after 48 hours post-treatment): much higher drug tolerance | tumor volume of high-dose Sorafenib group vs low-dose Sorafenib group (TW-1 cell line [2]; 50 mg/kg vs 10 mg/kg body weight, once per three days, 30 days): significantly higher than that in low-dose Sorafenib group mice | tumor volume of Sorafenib treating groups vs control group (TW-1 cell line [2]; 10 and 50 mg/kg body weight, once per three days, measured for 30 days): significantly higher than that in control group | metastasis of TW-1 cell line to lung (TW-1 cell line [2]; high-dose Sorafenib (50 mg/kg body weight), drug dependent): high-dose Sorafenib induced high metastasis
